The values below are quoted from earlier work in patent publication US12029740B2 (NANOCOPOEIA, LLC, priority 2020, dated 2024).

Structures are written as SMILES. Where a name gives a salt, the structure may show the parent alone.

For data set [1] the following is noted: low/moderate aqueous solubility and low permeability.

Consider `Cc1cn(-c2cc(NC(=O)c3ccc(C)c(Nc4nccc(-c5cccnc5)n4)c3)cc(C(F)(F)F)c2)cn1` [Nilotinib monohydrochloride monohydrate], for which the “Biopharmaceutical Classification System (BCS) class” value in data set [1] is reported as “Class IV”. For `Cc1cn(-c2cc(NC(=O)c3ccc(C)c(Nc4nccc(-c5cccnc5)n4)c3)cc(C(F)(F)F)c2)cn1` [nilotinib, 4-methyl-N-[3-(4-methyl-1H-imidazol-1-yl)-5-(trifluoromethyl)phenyl]-3-[[4-(3-pyridinyl)-2-pyrimidinyl]amino]-benzamide], the “solubility with increasing pH” value is “significantly decreases”.
